This data set has as its system gastrin production. The data set is described as follows: Side effects of continuous PPI administration (stomach weight ratio, gastrin-positive cells) and alleviation by lived No. 1088. Format: in vivo. The conditions noted are these: PBS-administered mice, Omeprazole 200 μg subcutaneously every other day for 4 or 8 weeks, vs no PPI. On the procedure: Six groups of mice were prepared, each containing five 4-week old GF-Balb/c male mice. Three of the groups were administered orally with a suspension prepared by suspending 1×10^9 CFU of lived No. 1088 in PBS, and the remaining three groups were administered orally with an equal volume of PBS.
When the mice reached 8 weeks of age, a treatment was started for one group of the No. 1088-administered mice and one group of the PBS-administered mice in which the mice were administered subcutaneously every other day with a solution prepared by dissolving 200 μg of the PPI Omeprazole (AstraZeneca Ltd.) in 200 μL of PBS (8 weeks of continuous PPI administration). […]
Upon reaching 16 weeks of age, the mice of each group were killed, and following measurement of the bodyweight, the stomach was extracted from each mouse, the stomach contents (feed and the like) were removed by washing with PBS, and the stomach weight was measured. […]
The stained tissue sections were subjected to observation and image capture using a fluorescence microscope BZ-9000. […]
Using the bodyweights and stomach weights measured upon extraction of the stomachs from the samples of each group, the ratio (%) of stomach weight to bodyweight was calculated for each group. […]

SMILES strings stand for the structures. Entries after “also recorded” stand apart in the source; their conditions may differ.

With `COc1ccc2[nH]c([S+]([O-])Cc3ncc(C)c(OC)c3C)nc2c1` (centres unmarked) [PPI, Omeprazole], the “number of gastrin-producing cells” value is recorded as “increased; also recorded: significant increases” and the “stomach weight ratio (stomach weight to bodyweight)” value is on record as “significant increases”.

Values taken from US20120177606A1, “LACTIC ACID BACTERIUM FOR INHIBITING PRODUCTION OF GASTRIC ACID AND GASTRIN” (SNOWDEN KABUSHIKIKAISHA, priority 2011, published 2012).
